Tests used:
Blast T cell = experiment: Cell proliferation test of IL-2 stimulated Blast T cell; format: cell-based; conditions: Homo sapiens; IL-2 stimulated Blast T cell proliferation, 72 hours
Protocol: Inhibiting test of the compounds of the invention on proliferation of Blast T cell and TF-1 cell (American type culture collection) was carried out by the following method. The tested compounds […], and […] were dissolved in dimethyl sulfoxide from 0.0006 to 10 μM in quadruplicate dilutions. […] 10 μg/ml […] was added to stimulate and obtain cells with a density of 2×10^6/mL, which were incubated for 3 days. The cells were washed with phosphate buffer for three times and IL-2 (100 u/ml) was added to stimulate for 1 week. Cells were suspended using the culture medium and seeded at 5×10^4 cell/well density into 96-well plates, and incubated for 1 h with the prepared test compound or DMSO control at various concentrations from 0.0006 to 10 μM diluted by 4-fold volume. After incubation with 20 u/ml of IL-2 (50 μl/well without reference well) for 72 hours, Celltiter Glo® reagent (Promega, G7571) was added and mixed for 5 minutes, then incubated for 30 minutes at room temperature. The luminescence value was read on SpectraMax L (Molecular Device). […] The IC50 values of the corresponding compounds were then obtained by fitting by using the XLFit fitting tool in excel.

TF-1 cell = TF-1 cell proliferation test; format: cell-based; conditions: Homo sapiens, 72 h
Protocol: Inhibiting test of the compounds of the invention on proliferation of Blast T cell and TF-1 cell (American type culture collection) was carried out by the following method. The tested compounds […], and […] were dissolved in dimethyl sulfoxide from 0.0006 to 10 μM in quadruplicate dilutions. […] The luminescence value was read on Microplate Reader (Molecular Device). […] The IC50 values of the corresponding compounds were then obtained by fitting by using the XLFit fitting tool in excel.

JAK1 = JAK1 (Homo sapiens (Human), UniProt P23458); experiment: JAK1 LANCE Ultra kinase assay; format: biochemical; conditions: for IC50: 38 uM ATP; for JAK2/JAK1: ratio of IC50 JAK2 to IC50 JAK1
Protocol: Inhibition test on activity of JAK kinase in vitro was carried out by the following methods.
JAK1 LANCE® Ultra assay, JAK2 LANCE® Ultra assay and JAK3 LANCE® Ultra assay were used to carry out the test separately, and kits of the above assays were supplied by PerkinElmer. […]
JAK1, JAK2 and JAK3 kinase, ATP and substrates were dissolved and diluted with buffers.
A test liquid was 2 nM Eu-W1024 anti-phosphotyrosine (PerkinElmer, AD0069). A stop buffer was 10 mM edetic acid (Intech, 1842C505).
2.5 μl of an 8-fold solution of the compound and 5 μl of a 4-fold solution of JAK1 or JAK2 or JAK3 kinase were added into a 384-well plate, respectively, and reacted for 10 minutes at room temperature. 2.5 μl of an 8-fold solution of ULight™-JAK-1 peptide/ATP was added and reacted for 90 minutes at room temperature. Finally, 5 μl of 4-fold edetic acid stop buffer and 5 μl of 4-fold test liquid of Eu-W1024 anti-phosphotyrosine were added and incubated for 60 minutes.
According to the formula: percentage of inhibition rate=(maximum value−transform value)/(maximum value−minimum value)×100, inhibition rate of each compound at various concentrations was calculated. The maximum value was the reference value of dimethyl sulfoxide added into the well plate, the minimum value was the blank value, and the transform value is the value obtained by the well of each compound. The IC50 values of the corresponding compounds were then obtained by fitting by using the XLFit fitting tool in excel.

JAK2 = JAK2 (Homo sapiens (Human), UniProt O60674); experiment: JAK2 LANCE Ultra kinase assay; format: biochemical; conditions: 12 uM ATP
JAK3 = JAK3 (Homo sapiens (Human), UniProt P52333); experiment: JAK3 LANCE Ultra kinase assay; format: biochemical; conditions: 4 uM ATP
male ICR mice = experiment: Carrageenan-induced paw swelling in mice; format: in vivo; conditions: 10 mg/kg intragastric
Protocol: (§1) The inhibiting effects of compounds H01, H07, H11, H12, H14, H15, H22, H25, H29, H30, H33, H39 and H44 on paw swelling in mice were determined after intragastric administration by using male ICR mice (ShanghaiSippr-BK laboratory animal Co. Ltd.), aged 8 weeks and weighing 22-24 g as test animals. The anti-inflammatory pharmacodynamics characteristic of the compounds of the invention was discussed.
A certain amount of compounds were taken and dissolved in 4% Tween 80/0.5% hydroxy propyl methyl cellulose solution. A volume of intragastric administration in mice was 10 ml/kg.
Mice were given 10 mg/kg compounds H01, H07, H11, H12, H14, H15, H22, H25, H29, H30, H33, H39, and H44 and the positive drug indomethacin (Diamond Reagent Co., Ltd., China) by intragastric administration at the dosages shown in the table below and 20 μL 1% (W/V) carrageenan was injected subcutaneously into the plantar 0.5 h later. A paw volume was measured with a paw swelling meter before and at different time points after modeling (0.5 h, 1 h and 2 h). According to the formula: paw swelling rate=(paw volume after administration−basic paw volume)/basic paw volume×100, the inhibiting effect of the compounds on paw volume was calculated. The basic paw volume was a paw volume before administration.

Sprague-Dawley (SD) mice = experiment: Concanavalin-induced paw swelling in mice; format: in vivo; conditions: 10 mg/kg intragastric
Protocol: as §1, with “H13,” for “H01, H07, H11, H12,”, “H09, H11” for “H15, H22, H25, H29, H30, H33, H39”, “compounds of Example 12” for “H44”, “Sprague-Dawley (SD)” for “male ICR”, “6-7” for “8”, “160-180” for “22-24”
A certain amount of compounds were taken and dissolved in 4% Tween 80/0.5% hydroxy propyl methyl cellulose solution.
Mice were given compounds H01, H07, H11, H12, H14, H15, H22, H25, H29, H30, H33, H39, and H44 and the positive drug indomethacin (Diamond Reagent Co., Ltd., China) by intragastric administration at the dosages shown in the table below and 0.1 ml 0.03% (W/V) concanavalin was injected subcutaneously into the plantar 0.5 h later. A paw volume was measured with a paw swelling meter before modeling and 1 h, 2 h, 4 h and 6 h after modeling. According to the formula: paw swelling rate=(paw volume after administration−basic paw volume)/basic paw volume×100, the inhibiting effect of the compounds on paw volume was calculated. The basic paw volume was a paw volume before administration.

JAK1, sequence (P23458 whole entry): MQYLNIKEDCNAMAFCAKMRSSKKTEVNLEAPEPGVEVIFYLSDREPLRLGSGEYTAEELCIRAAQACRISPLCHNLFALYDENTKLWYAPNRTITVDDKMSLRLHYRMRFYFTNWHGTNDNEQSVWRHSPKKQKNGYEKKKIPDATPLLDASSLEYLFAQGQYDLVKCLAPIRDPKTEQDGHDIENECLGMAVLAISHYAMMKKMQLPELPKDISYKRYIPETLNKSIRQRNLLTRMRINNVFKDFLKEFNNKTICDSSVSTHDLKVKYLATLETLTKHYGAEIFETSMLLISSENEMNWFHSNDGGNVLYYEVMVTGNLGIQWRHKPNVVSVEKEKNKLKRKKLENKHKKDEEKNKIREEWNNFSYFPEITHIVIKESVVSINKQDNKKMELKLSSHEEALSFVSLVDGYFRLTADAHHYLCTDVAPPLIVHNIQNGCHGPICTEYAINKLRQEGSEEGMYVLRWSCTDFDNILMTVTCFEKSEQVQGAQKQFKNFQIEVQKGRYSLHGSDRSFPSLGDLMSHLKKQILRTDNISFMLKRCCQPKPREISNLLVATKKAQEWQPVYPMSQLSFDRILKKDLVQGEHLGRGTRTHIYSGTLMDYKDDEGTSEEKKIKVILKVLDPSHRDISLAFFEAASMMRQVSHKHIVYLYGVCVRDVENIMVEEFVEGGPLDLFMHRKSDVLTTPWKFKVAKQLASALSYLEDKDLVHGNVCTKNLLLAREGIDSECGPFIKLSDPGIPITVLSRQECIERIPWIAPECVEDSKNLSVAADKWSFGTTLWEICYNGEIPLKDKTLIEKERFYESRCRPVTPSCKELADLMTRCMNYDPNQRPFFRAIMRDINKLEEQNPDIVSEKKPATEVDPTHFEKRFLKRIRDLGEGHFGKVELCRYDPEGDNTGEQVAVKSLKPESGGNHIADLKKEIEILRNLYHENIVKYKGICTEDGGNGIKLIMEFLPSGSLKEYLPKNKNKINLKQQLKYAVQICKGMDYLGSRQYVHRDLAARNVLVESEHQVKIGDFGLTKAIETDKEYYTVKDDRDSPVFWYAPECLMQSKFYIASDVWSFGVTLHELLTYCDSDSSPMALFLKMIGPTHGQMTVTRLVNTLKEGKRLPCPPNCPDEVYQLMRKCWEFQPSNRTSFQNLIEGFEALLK
JAK2, sequence (O60674 whole entry): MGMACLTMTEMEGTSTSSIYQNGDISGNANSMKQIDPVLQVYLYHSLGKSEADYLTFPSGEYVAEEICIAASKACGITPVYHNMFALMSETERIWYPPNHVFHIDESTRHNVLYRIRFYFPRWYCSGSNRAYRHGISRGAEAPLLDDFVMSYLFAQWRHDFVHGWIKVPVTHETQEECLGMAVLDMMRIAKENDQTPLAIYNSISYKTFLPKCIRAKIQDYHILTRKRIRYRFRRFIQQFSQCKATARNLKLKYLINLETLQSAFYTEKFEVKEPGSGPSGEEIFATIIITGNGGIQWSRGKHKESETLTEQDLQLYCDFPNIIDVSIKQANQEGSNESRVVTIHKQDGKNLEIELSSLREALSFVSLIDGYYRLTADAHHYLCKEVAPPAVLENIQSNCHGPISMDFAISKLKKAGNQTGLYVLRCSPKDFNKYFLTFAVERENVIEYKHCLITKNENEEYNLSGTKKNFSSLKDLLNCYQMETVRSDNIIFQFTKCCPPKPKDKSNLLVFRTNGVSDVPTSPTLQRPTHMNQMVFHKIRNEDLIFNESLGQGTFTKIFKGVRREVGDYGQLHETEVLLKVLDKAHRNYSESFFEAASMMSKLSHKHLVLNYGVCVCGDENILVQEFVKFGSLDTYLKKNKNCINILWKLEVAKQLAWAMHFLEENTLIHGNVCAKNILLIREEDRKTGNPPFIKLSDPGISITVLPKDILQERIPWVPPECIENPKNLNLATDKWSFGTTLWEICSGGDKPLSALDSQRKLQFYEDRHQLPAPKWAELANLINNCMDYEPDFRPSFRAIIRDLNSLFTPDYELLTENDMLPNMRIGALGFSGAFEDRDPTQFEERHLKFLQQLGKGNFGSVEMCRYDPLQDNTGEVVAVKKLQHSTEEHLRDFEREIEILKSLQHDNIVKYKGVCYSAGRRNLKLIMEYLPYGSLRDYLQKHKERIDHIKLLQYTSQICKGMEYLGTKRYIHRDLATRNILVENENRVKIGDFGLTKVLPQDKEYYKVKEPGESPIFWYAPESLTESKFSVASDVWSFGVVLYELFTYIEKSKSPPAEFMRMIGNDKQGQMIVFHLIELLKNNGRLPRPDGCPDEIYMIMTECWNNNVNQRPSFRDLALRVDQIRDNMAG
JAK3, sequence (P52333 whole entry): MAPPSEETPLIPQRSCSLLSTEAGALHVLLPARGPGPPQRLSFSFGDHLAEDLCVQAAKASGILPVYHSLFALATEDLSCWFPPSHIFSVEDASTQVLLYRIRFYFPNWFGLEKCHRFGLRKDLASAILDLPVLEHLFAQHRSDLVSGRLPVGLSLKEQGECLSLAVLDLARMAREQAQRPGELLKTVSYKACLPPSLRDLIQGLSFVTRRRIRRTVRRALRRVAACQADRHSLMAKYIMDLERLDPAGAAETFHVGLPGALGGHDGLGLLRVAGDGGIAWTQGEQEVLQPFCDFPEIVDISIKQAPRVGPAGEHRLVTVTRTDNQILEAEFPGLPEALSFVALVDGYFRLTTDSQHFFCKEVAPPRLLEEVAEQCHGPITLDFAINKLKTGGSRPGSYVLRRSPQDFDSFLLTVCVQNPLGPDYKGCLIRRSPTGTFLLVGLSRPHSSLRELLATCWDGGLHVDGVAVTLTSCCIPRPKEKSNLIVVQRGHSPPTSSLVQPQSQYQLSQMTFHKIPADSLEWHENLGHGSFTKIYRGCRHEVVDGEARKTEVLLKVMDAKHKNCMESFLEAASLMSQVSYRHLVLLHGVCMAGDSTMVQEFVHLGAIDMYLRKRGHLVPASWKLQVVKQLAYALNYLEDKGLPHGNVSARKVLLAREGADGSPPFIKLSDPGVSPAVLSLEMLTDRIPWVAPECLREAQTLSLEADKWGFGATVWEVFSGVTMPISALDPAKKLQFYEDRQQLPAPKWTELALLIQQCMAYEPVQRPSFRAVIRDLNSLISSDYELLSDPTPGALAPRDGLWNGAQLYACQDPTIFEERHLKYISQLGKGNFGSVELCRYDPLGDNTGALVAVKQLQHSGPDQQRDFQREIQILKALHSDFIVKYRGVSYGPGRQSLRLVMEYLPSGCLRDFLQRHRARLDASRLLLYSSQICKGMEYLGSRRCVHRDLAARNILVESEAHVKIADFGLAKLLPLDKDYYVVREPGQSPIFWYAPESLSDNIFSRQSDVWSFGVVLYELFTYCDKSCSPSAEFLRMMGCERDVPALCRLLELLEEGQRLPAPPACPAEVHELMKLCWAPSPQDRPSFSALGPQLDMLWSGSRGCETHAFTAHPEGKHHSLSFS

SMILES | IC50 (Blast T cell) | IC50 (TF-1 cell) | IC50 (JAK1) | JAK2/JAK1 (JAK1) | IC50 (JAK2) | IC50 (JAK3) | also measured
CC[C@@H]1CN(C(=O)NCC(F)(F)F)CC1N(C)c1c(C#N)cnc2[nH]ccc12 (stereo partly shown) [Compound H02] | 0.48 µM | 1.34 µM | – | – | – | – | –
CN(c1c(C#N)cnc2[nH]ccc12)[C@H]1CC[C@H](CS(=O)(=O)N2CCC(C)(O)C2)CC1 (stereo partly shown) [Compound H62] | 0.029 µM | 1.32 µM | 5.8 nM | 2.76 | 16 nM | 40 nM | –
C[C@@H]1CN(C(=O)NCC(F)(F)F)C[C@@H]1Nc1c(C#N)cnc2[nH]ccc12 [Compound H40] | 0.036 µM | 1.24 µM | 2.6 nM | 6.00 | 15.6 nM | 144 nM | –
CC[C@@H]1CC(NS(=O)(=O)c2cccc3nonc23)C[C@@H]1Nc1c(C#N)cnc2[nH]ccc12 (stereo partly shown) [Compound H58, N-(3-((5-cyano-1H-pyrrolo[2,3-b]pyridin-4-yl)amino)-4-ethylcyclopentyl)benzo[c][1,2,5] oxadiazole-4-sulfamide] | 0.041 µM | 0.98 µM | – | – | – | – | –
N#Cc1cnc2[nH]ccc2c1NC1CCN(S(=O)(=O)c2cccc(C(F)(F)F)c2)CC1 [Compound H34] | 0.044 µM | 1.54 µM | – | – | – | – | –
COc1ccc2c(c1)c(CC(=O)O)c(C)n2C(=O)c1ccc(Cl)cc1 [Indomethacin, reference compound] | – | – | – | – | – | – | Paw swelling_0.5 h (%) (male ICR mice; 0.5 h): 32.91 ± 3.22%; Paw swelling rate_1 h (%) (male ICR mice; 1 h): 42.21 ± 4.64%; Paw swelling rate_2 h (%) (male ICR mice; 2 h): 55.10 ± 2.21%; Paw swelling rate_1 h (%) (Sprague-Dawley (SD) mice; 1 h): 34.00 ± 2.30%; Paw swelling rate_2 h (%) (Sprague-Dawley (SD) mice; 2 h): 44.80 ± 3.00%; Paw swelling rate_4 h (%) (Sprague-Dawley (SD) mice; 4 h): 42.70 ± 2.00%; Paw swelling rate_6 h (%) (Sprague-Dawley (SD) mice; 6 h): 36.20 ± 2.00%
CCC1CN(C(=O)NCC2CC2)CC1Nc1c(C#N)cnc2[nH]ccc12 (stereo not shown) [Compound H82, 3-((5-cyano-1H-pyrrolo[2,3-b]pyridin-4-yl)amino)-4-ethyl-N-(cyclopropylmethyl)pyrrolidin-1-carboxamide] | – | – | 8.9 nM | 7.75 | 69 nM | 172 nM | –
CC[C@@H]1CC(NC(=O)CCC(F)(F)F)C[C@@H]1Nc1c(C#N)cnc2[nH]ccc12 (stereo in doubt) [Compound H59, N-(3-((5-cyano-1H-pyrrolo[2,3-b]pyridin-4-yl)amino)-4-ethylcyclopentyl)-4,4,4-trifluorobutanamide] | – | – | 2.06 nM | 5.63 | 11.6 nM | 39.6 nM | –
COCCOc1nsc(NC(=O)N2C[C@H]3C[C@H](Nc4c(C#N)cnc5[nH]ccc45)C[C@H]3C2)n1 [Compound H52, (3aR,5S,6aS)-5-((5-cyano-1H-pyrrolo[2,3-b]pyridin-4-yl)amino)-N-(3-(2-methoxyethoxy)-1,2,4-thiadiazole-5-yl)hexahydrocyclopenta[c]pyrrole-2(1H)-carboxamide] | – | – | 0.79 nM | 10.06 | 7.95 nM | 69 nM | –
CC[C@@H]1CN(C(=O)Nc2nc(OC)ns2)C[C@@H]1Nc1c(C#N)cnc2[nH]ccc12 [Compound H80, 4-(((cis)-4-ethyl-1-(3-methoxy-1,2,4-thiadiazole-5-aminocarbonyl)pyrrolidin-3-yl)amino)-1H-pyrrolo[2,3-b]pyridin-5-carbonitrile] | – | – | 2.9 nM | 6.41 | 18.6 nM | 152 nM | –
CC(C)[C@@H]1CN(C(=O)NCC(F)(F)F)C[C@@H]1Nc1c(C#N)cnc2[nH]ccc12 (relative stereo) [Compound H73, (cis)-3-((5-cyano-1H-pyrrolo[2,3-b]pyridin-4-yl)amino)-4-isopropyl-N-(2,2,2-trifluoroethyl)pyrrolidin-1-carboxamide] | – | – | 4.9 nM | 6.12 | 30 nM | 157 nM | –
C[C@@H]1CN(C(=O)CC#N)C[C@@H]1N(C)c1c(C#N)cnc2[nH]ccc12 (relative stereo) [Compound H05, (cis)-4-{[4-methyl-1-(2-cyanoacetyl)pyrrolidin-3-yl]-methyl-amino}-1H-pyrrolo[2,3-b]pyridin-5-carbonitrile] | – | – | 7.86 nM | 1.56 | 12.3 nM | 256 nM | –
N#Cc1cnc2[nH]ccc2c1N[C@H]1C[C@@H](NS(=O)(=O)c2cccc3nonc23)C1 [Compound H19, (cis)-4-{[3-(benzo[c][1,2,5]oxadiazole-4-sulfonamido)-cyclobutyl-1-yl]-amino}-1H-pyrrolo[2,3-b]pyridin-5-carbonitrile] | 0.024 µM | 2.3 µM | – | – | – | – | –
COCc1nsc(NC(=O)N2C[C@H]3C[C@H](N(C)c4c(C#N)cnc5[nH]ccc45)C[C@H]3C2)n1 [Compound H56] | – | – | 1.43 nM | 7.01 | 10 nM | 82 nM | –
CNc1nsc(NC(=O)N2C[C@H]3C[C@H](N(C)c4c(C#N)cnc5[nH]ccc45)C[C@H]3C2)n1 [Compound H41, (3aR,5s,6aS)-5-((5-cyano-1H-pyrrolo[2,3-b]pyridin-4-yl)(methyl)amino)-N-(3-(methylamino)-1,2,4-thiadiazole-5-yl)hexahydrocyclopentadiene[c]pyrrole-2(1H)-carboxamide] | 0.055 µM | 1.64 µM | – | – | – | – | –
C[C@H](O)C(=O)N1C[C@H]2C[C@@H](N(C)c3c(C#N)cnc4[nH]ccc34)C[C@H]2C1 [Compound H06, (3aR,5R,6aS)-4-{[2-((2S)-2-hydroxypropionyl)-hexahydrocyclopenta[c]pyrrole-5-yl]-methyl-amino}-1H-pyrrolo[2,3-b]pyridin-5-carbonitrile] | – | – | 6.68 nM | – | 29.9 nM | 96 nM | –
CN(c1c(C#N)cnc2[nH]ccc12)[C@@H]1CC[C@H](CS(=O)(=O)N2CCC(CO)C2)C1 (stereo partly shown) [Compound H71] | – | – | 1.13 nM | 8.67 | 9.8 nM | 70 nM | –

Reference: patent publication US12398141B2 (SHANGHAI SYNERGY PHARMACEUTICAL SCIENCES CO., LTD, priority 2019, dated 2025)
